Results as given in patent publication US8647687B2, “Isoamyl acetate for weight management” (Nestec S.A., priority 2008, dated 2014).

Experiment: Clinical trial: Wanting, Liking and Intensity ratings of flavored waters after a preload
Type: in vivo, human
Details: prior consumption of the preload, then rating of isoamyl acetate flavored water; 17 participants
Description: Isoamyl acetate was combined with 0.5% w/w sucrose (Fisher Scientific) and dissolved in bottled mineral water (Vittel, Nestlé waters, France). Isoamyl acetate was provided as liquid concentrate supplied by Sigma-Aldrich (Steinheim, Germany). The final concentration of isoamyl acetate was 16 ppm.
A clinical trial with 17 healthy participants was conducted to investigate the neural correlates of flavor reward in terms of “Liking” (or pleasure) and “Wanting” (or appetite). Seventeen participants rated flavored waters in different conditions while their brain electrical activity was monitored using electro-encephalography. Waters were flavored either with isoamyl acetate (described as banana) or ethyl butyrate (described as strawberry). Experimental conditions consisted in the ratings of the 2 flavored waters after a preload (prior consumption of a flavored water) or without a preload.
The behavioral results of this clinical trial are summarized in FIG. 1 showing the mean Wanting (or appetite) and Liking (or pleasure) ratings (from 1, not at all to 9, extremely) obtained for the ETB flavored water in the different Preload conditions from 17 participants. […] IAA: isoamyl acetate; ETB: ethyl butyrate.

## CCCC(=O)OCC [ethyl butyrate]
  appetite for isoamyl acetate flavored water: no impact
